Results on 27 compounds are retold here after publication PMC5074515 (PLoS ONE, 2016).

The subject of one series is Mtb H37Ra (ATCC 25177). Put plainly: In vitro screen versus Mtb H37Ra (Alamar blue microdilution broth assay, MIC99). The format is cell-based, M. tuberculosis. As to conditions: Mycobacterium tuberculosis; lowest drug concentration that completely inhibited growth; read-out: Mtb H37Ra MIC99. On the procedure: The initial screening set and selected other compounds were tested for their inhibitory activity against Mtb H37Ra (ATCC 25177) and MAC NJ211 strains. Screening was performed at 1.28 and 12.8 μg/mL in Middlebrook 7H9 broth supplemented with 0.2% glycerol and ADC enrichment using a colorimetric (Alamar blue) microdilution broth assay by reported methods.[15]
A general note: Resazurin is reduced to fluorescent resorufin, in cell work by metabolically active cells.

A further series deals with Mtb H37Rv. Put plainly: In vitro qHTS assay against Mtb H37Rv (IC90). As to conditions: for IC90 / Mtb H37Rv IC90: concentration that inhibits bacterial growth by 90%; for IC90: read-out: Mtb H37Rv IC90. The format is cell-based, M. tuberculosis. On the technique in general: qHTS replaces the single test concentration by a dilution series.
The mark [1] stands for this setting: Mycobacterium tuberculosis, H37RV.

≈ marks a conversion by molar mass, not a printed value. Like-named read-outs stand apart in the source and are kept apart here.

In the case of `CC(=O)O[C@H]1C(=O)[C@@]2(C)[C@H]([C@H](OC(=O)c3ccccc3)[C@]3(O)C[C@H](OC(=O)[C@H](O)[C@@H](NC(=O)c4ccccc4)c4ccccc4)C(C)=C1C3(C)C)[C@]1(OC(C)=O)CO[C@@H]1C[C@@H]2O` [Compound 14, Taxol], in the series with Mtb H37Ra (ATCC 25177), the MIC99 turned out to be 16 µg/mL (≈ 18.7 µM).
The compound `CCN(CC)CCNC(=O)CC1=C(C)/C(=C/c2ccc(SC)cc2)c2ccc(F)cc21` [Compound 20, (Z)-N-(2-(Diethylamino)ethyl)-2-(5-fluoro-2-methyl-1-(4-(methylthio)benzylidene)-1H-inden-3-yl)acetamide] had a melting point of 98 to 100 °C. Moreover, the IC90 in the series on Mtb H37Rv (setting [1]) is 3.59 ± 0.06 µM.
`CCN(CC)CCCNC(=O)CC1=C(C)/C(=C/c2ccc(SC)cc2)c2ccc(F)cc21` [Compound 21, (Z)-N-(3-(Diethylamino)propyl)-2-(5-fluoro-2-methyl-1-(4-(methylthio)benzylidene)-1H-inden-3-yl)acetamide]: the melting point fell in the range of 78 to 81 °C. Moreover, the concentration for an effect of 90% (IC90) with Mtb H37Rv (setting [1]) was found to be 4.36 ± 0.07 µM.
`CSc1ccc(/C=C2/C(C)=C(CC(=O)NCCCN3CCCCC3C)c3cc(F)ccc32)cc1` (stereo not drawn) [Compound 25, (Z)-2-(5-Fluoro-2-methyl-1-(4-(methylthio)benzylidene)-1H-inden-3-yl)-N-(3-(2-methylpiperidin-1-yl)propyl)acetamide]: the melting point is 84 to 86 °C. Further, the IC90 in the series on Mtb H37Rv (setting [1]) worked out at 5.41 ± 0.11 µM.
Take `CSc1ccc(/C=C2/C(C)=C(CC(=O)NCCC3CCCN3C)c3cc(F)ccc32)cc1` (stereo not drawn) [Compound 27, (Z)-2-(5-Fluoro-2-methyl-1-(4-(methylthio)benzylidene)-1H-inden-3-yl)-N-(2-(1-methylpyrrolidin-2-yl)ethyl)acetamide]: the IC90 with Mtb H37Rv (setting [1]) was found to be 4.34 ± 0.16 µM.
Take `CCN1CCC[C@H]1CNC(=O)CC1=C(C)/C(=C/c2ccc(SC)cc2)c2ccc(F)cc21` [Compound 28, (S,Z)-N-((1-Ethylpyrrolidin-2-yl)methyl)-2-(5-fluoro-2-methyl-1-(4-(methylthio)benzylidene)-1H-inden-3-yl)acetamide]: the melting point is 74 to 76 °C. The IC90 in the series with Mtb H37Rv (setting [1]) came out at 3.98 ± 0.03 µM.
With `CSc1ccc(/C=C2/C(C)=C(CC(=O)N3CCC[C@H]3CN3CCCC3)c3cc(F)ccc32)cc1` [Compound 29, (S,Z)-2-(5-Fluoro-2-methyl-1-(4-(methylthio)benzylidene)-1H-inden-3-yl)-1-(2-(pyrrolidin-1-ylmethyl)pyrrolidin-1-yl)ethanone], the melting point was in the range of 101 to 104 °C. In the series with Mtb H37Rv (setting [1]), the IC90 turned out to be 4.06 ± 0.03 µM.
Regarding `CSc1ccc(/C=C2/C(C)=C(CC(=O)N3CCC(N4CCCCC4)CC3)c3cc(F)ccc32)cc1` [Compound 30, (Z)-1-([1,4'-Bipiperidin]-1'-yl)-2-(5-fluoro-2-methyl-1-(4-(methylthio)benzylidene)-1H-inden-3-yl)ethanone], the melting point is 145 to 148 °C. In addition, the concentration for an effect of 90% (IC90) with Mtb H37Rv (setting [1]) is 2.75 ± 0.02 µM.
Consider `CSc1ccc(/C=C2/C(C)=C(CC(=O)N3CCN(CCCN(C)C)CC3)c3cc(F)ccc32)cc1` [Compound 31, (Z)-1-(4-(3-(Dimethylamino)propyl)piperazin-1-yl)-2-(5-fluoro-2-methyl-1-(4-(methylthio)benzylidene)-1H-inden-3-yl)ethanone], for which the melting point was 131 to 134 °C. In addition, the concentration for an effect of 90% (IC90) with Mtb H37Rv (setting [1]) was 9.55 ± 0.31 µM.
With `CSc1ccc(/C=C2/C(C)=C(CC(=O)N3CCN(c4ccncc4)CC3)c3cc(F)ccc32)cc1` [Compound 32, (Z)-2-(5-Fluoro-2-methyl-1-(4-(methylthio)benzylidene)-1H-inden-3-yl)-1-(4-(pyridin-4-yl)piperazin-1-yl)ethanone], the melting point lay within 171 to 174 °C. In the series on Mtb H37Rv (setting [1]), the IC90 was 3.07 ± 0.04 µM.
On to `CSc1ccc(/C=C2/C(C)=C(CC(=O)NCCCn3ccnc3)c3cc(F)ccc32)cc1` [Compound 33, (Z)-N-(3-(1H-Imidazol-1-yl)propyl)-2-(5-fluoro-2-methyl-1-(4-(methylthio)benzylidene)-1H-inden-3-yl)acetamide], for which the melting point was in the range of 103 to 105 °C. In addition, in the series with Mtb H37Rv (setting [1]), the 90% effect concentration (IC90) is 1.18 ± 0.01 µM.
`CSc1ccc(/C=C2/C(C)=C(CC(=O)NCc3ccccc3)c3cc(F)ccc32)cc1` [Compound 34, (Z)-N-Benzyl-2-(5-fluoro-2-methyl-1-(4-(methylthio)benzylidene)-1H-inden-3-yl)acetamide] had a melting point of 171 to 174 °C. The IC90 in the series on Mtb H37Rv (setting [1]) was greater than 100 µM. Further, the “Mtb H37Rv IC90” value with Mtb H37Rv was “inactive”.
For `CSc1ccc(/C=C2/C(C)=C(CC(=O)NCc3ccco3)c3cc(F)ccc32)cc1` [Compound 36, (Z)-2-(5-Fluoro-2-methyl-1-(4-(methylthio)benzylidene)-1H-inden-3-yl)-N-(furan-2-ylmethyl)acetamide] the same measures were 166 to 168 °C, greater than 100 µM and “inactive”.
`COC(=O)[C@H](C)NC(=O)CC1=C(C)/C(=C/c2ccc(SC)cc2)c2ccc(F)cc21` [Compound 37, (S,Z)-Methyl 2-(2-(5-fluoro-2-methyl-1-(4-(methylthio)benzylidene)-1H-inden-3-yl)acetamido)propanoate]: the melting point was in the range of 151 to 154 °C. Also, in the series on Mtb H37Rv (setting [1]), the IC90 is 3.04 ± 0.1 µM.
Consider `CC1=C(CC(=O)NCCN(C)C)c2cc(F)ccc2/C1=C\c1nc2ccccc2s1` [Compound 38, (Z)-2-(1-(Benzo[d]thiazol-2-ylmethylene)-5-fluoro-2-methyl-1H-inden-3-yl)-N-(2-(dimethylamino)ethyl)acetamide], for which the melting point was 132 to 135 °C. The IC90 with Mtb H37Rv (setting [1]) was 4.75 ± 0.05 µM.
`CC1=C(CC(=O)N(C)CCN(C)C)c2cc(F)ccc2/C1=C\c1nc2ccccc2s1` [Compound 39, (Z)-2-(1-(Benzo[d]thiazol-2-ylmethylene)-5-fluoro-2-methyl-1H-inden-3-yl)-N-(2-(dimethylamino)ethyl)-N-methylacetamide] showed a melting point of 103 to 106 °C. Further, the IC90 in the series with Mtb H37Rv (setting [1]) was found to be 9.97 ± 0.33 µM.
Consider `CCN(CC)CCNC(=O)CC1=C(C)/C(=C/c2nc3ccccc3s2)c2ccc(F)cc21` [Compound 40, (Z)-2-(1-(Benzo[d]thiazol-2-ylmethylene)-5-fluoro-2-methyl-1H-inden-3-yl)-N-(2-(diethylamino)ethyl)acetamide], for which the melting point was 127 to 130 °C. In the series on Mtb H37Rv (setting [1]), the IC90 was 3.47 ± 0.04 µM.
Take `CC1=C(CC(=O)NCCN2CCCC2)c2cc(F)ccc2/C1=C\c1nc2ccccc2s1` [Compound 41, (Z)-2-(1-(Benzo[d]thiazol-2-ylmethylene)-5-fluoro-2-methyl-1H-inden-3-yl)-N-(2-(pyrrolidin-1-yl)ethyl)acetamide]: the IC90 in the series with Mtb H37Rv (setting [1]) was found to be 6.7 ± 0.04 µM.
`CCN1CCC[C@H]1CNC(=O)CC1=C(C)/C(=C/c2nc3ccccc3s2)c2ccc(F)cc21` [Compound 42, (S,Z)-2-(1-(Benzo[d]thiazol-2-ylmethylene)-5-fluoro-2-methyl-1H-inden-3-yl)-N-((1-ethylpyrrolidin-2-yl)methyl)acetamide]: the melting point was in the range of 168 to 171 °C. Further, the IC90 in the series with Mtb H37Rv (setting [1]) was 5.46 ± 0.12 µM.
Take `CC1=C(CC(=O)N2CCC[C@H]2CN2CCCC2)c2cc(F)ccc2/C1=C\c1nc2ccccc2s1` [Compound 43, (S,Z)-2-(1-(Benzo[d]thiazol-2-ylmethylene)-5-fluoro-2-methyl-1H-inden-3-yl)-1-(2-(pyrrolidin-1-ylmethyl)pyrrolidin-1-yl)ethanone]: the melting point was in the range of 79 to 81 °C. The IC90 in the series on Mtb H37Rv (setting [1]) was determined as 3.68 ± 0.11 µM.
Turning to `CSc1ccc(/C=C2/C(C)=C(C(C)C(=O)NCCN(C)C)c3cc(F)ccc32)cc1` (stereo not drawn) [Compound 44, (Z)-N-(2-(Dimethylamino)ethyl)-2-(5-fluoro-2-methyl-1-(4-(methylthio)benzylidene)-1H-inden-3-yl)propanamide], in the series with Mtb H37Rv (44 vs 18), the “fold less active against Mtb H37Rv than desmethyl analog” value is recorded as 2 fold. In addition, in the series with Mtb H37Rv (setting [1]), the IC90 worked out at 13.6 ± 0.89 µM.
As for `CSc1ccc(/C=C2/C(C)=C(C(C)C(=O)N(C)CCN(C)C)c3cc(F)ccc32)cc1` (stereo not drawn) [Compound 45, (Z)-N-(2-(Dimethylamino)ethyl)-2-(5-fluoro-2-methyl-1-(4-(methylthio)benzylidene)-1H-inden-3-yl)-N-methylpropanamide], the IC90 with Mtb H37Rv (setting [1]) is 5.95 ± 0.06 µM.
With `CNCCN(C)C(=O)C(C)C1=C(C)/C(=C/c2ccc(SC)cc2)c2ccc(F)cc21` (stereo not drawn) [Compound 48, (Z)-2-(5-Fluoro-2-methyl-1-(4-(methylthio)benzylidene)-1H-inden-3-yl)-N-methyl-N-(2-(methylamino)ethyl)propanamide], in the series with Mtb H37Rv (48 vs 23, 57 vs 56, 60 vs 24), the “fold more active against Mtb H37Rv than corresponding analog” value amounted to 4 fold. Also, the concentration for an effect of 90% (IC90) in the series on Mtb H37Rv (setting [1]) came out at 2.11 ± 0.08 µM.
As to `CSc1ccc(/C=C2/C(C)=C(C(C)C(=O)NCCN3CCCCC3)c3cc(F)ccc32)cc1` (stereo not drawn) [Compound 49, (Z)-2-(5-Fluoro-2-methyl-1-(4-(methylthio)benzylidene)-1H-inden-3-yl)-N-(2-(piperidin-1-yl)ethyl)propanamide], in the series with Mtb H37Rv (setting [1]), the IC90 turned out to be 1.99 ± 0.06 µM.
As for `CCN1CCC[C@H]1CNC(=O)C(C)C1=C(C)/C(=C/c2ccc(SC)cc2)c2ccc(F)cc21` (stereo partly drawn) [Compound 51, N-(((S)-1-Ethylpyrrolidin-2-yl)methyl)-2-((Z)-5-fluoro-2-methyl-1-(4-(methylthio)benzylidene)-1H-inden-3-yl)propanamide], the IC90 with Mtb H37Rv (setting [1]) came out at 2.41 ± 0.04 µM.
For the compound `CSc1ccc(/C=C2/C(C)=C(C(C)C(=O)N3CCN(c4ccncc4)CC3)c3cc(F)ccc32)cc1` (stereo not drawn) [Compound 55, (Z)-2-(5-Fluoro-2-methyl-1-(4-(methylthio)benzylidene)-1H-inden-3-yl)-1-(4-(pyridin-4-yl)piperazin-1-yl)propan-1-one], the IC90 with Mtb H37Rv (setting [1]) is 2.89 ± 0.09 µM.
On to “(Z)-N-(3-(Dibutylamino)propyl)-2-(5-fluoro-2-methyl-1-(4-(methylthio)benzylidene)-1H-inden-3-yl)acetamide [Compound 22]”, for which the IC90 in the series with Mtb H37Rv was found to be 0.85 µM.

What is called MIC99 is an inhibitory concentration at the 99% level, which refers to growth in some studies and to a panel of isolates in others. In general, IC90 refers to the concentration needed for an effect of 90%. The melting point is the temperature of the solid-liquid transition.
